Source: patent publication US11319299B2, “Substituted carboxamides as inhibitors of WDR5 protein-protein binding” (PROPELLON THERAPEUTICS INC., priority 2016, dated 2022)
Where two headings read alike, the source gives them in different places.

What was measured:
MV4-11 cells = experiment: Cell proliferation assay (ATPlite); type: cell-based; details: Homo sapiens, MV4-11, 120 h; MV-411 cells, five days; read-out: In vitro whole cell potency in MV-411 cells, (IC50)
How it was run: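 Read-out is ATP-based luminescence (ATPlite) after 5 days of culture at 37° C under 5% CO2. Compounds were given as 10-point dilutions starting at 10 μM to MV4-11 cells, seeded at 1,000 cells/well in Alpha-MEM plus 10% FBS.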

WDR5 = WDR5 (Homo sapiens (Human), UniProt P61964); experiment: Surface Plasmon Resonance (SPR) assay, KD and residence time; type: binding; details: for Kd: read-out: WDR5 binding affinity (KD)
[1] = surface plasmon resonance (SPR) assay
[2] = surface plasmon resonance (SPR)

| SMILES | IC50 (MV4-11 cells) [nM] | Kd (WDR5; [1]) [nM] | Kd (WDR5; [2]) [nM] | residence time (WDR5; τ=1/koff, Table 2, read-out: Residence Time (t, min)) [min] |
| --- | --- | --- | --- | --- |
| CC1CN(c2cc(F)c(-c3cnc(N4CCN(C)CC4)nc3)cc2NC(=O)c2cn(C)c(=O)cc2C(F)(F)F)CCN1C (stereo in doubt) [Example 279, N-[4-fluoro-5-[2-(4-methylpiperazin-1-yl)pyrimidin-5-yl]-2-[(3R)-3,4-dimethylpiperazin-1-yl]phenyl]-1-methyl-6-oxo-4-(trifluoromethyl)pyridine-3-carboxamide] | 118 | 2.08 | – | – |
| CC1CN(c2cc(F)c(-c3ccc(N4C[C@@H](C)O[C@@H](C)C4)nc3)cc2NC(=O)c2c[nH]c(=O)cc2C(F)(F)F)CCN1C (stereo in doubt) [Example 341, N-[4-fluoro-5-[6-[(2R,6S)-2,6-dimethylmorpholin-4-yl]pyridin-3-yl]-2-[(3R)-3,4-dimethylpiperazin-1-yl]phenyl]-6-oxo-4-(trifluoromethyl)-1H-pyridine-3-carboxamide] | 52 | 1.97 | – | – |
| CC(C)C1CN(c2ncc(-c3cc(NC(=O)c4c[nH]c(=O)cc4C(F)(F)F)c(N4C[C@@H](C)N(C)[C@@H](C)C4)cc3F)cn2)CCO1 (stereo in doubt) [Example 348, N-[4-fluoro-5-[2-[(2R)-2-propan-2-ylmorpholin-4-yl]pyrimidin-5-yl]-2-[(3S,5R)-3,4,5-trimethylpiperazin-1-yl]phenyl]-6-oxo-4-(trifluoromethyl)-1H-pyridine-3-carboxamide] | 42 | 2.28 | – | – |
| CC1CN(c2cc(F)c(-c3cnc(N4C[C@@H](C)O[C@@H](C)C4)nc3)cc2NC(=O)c2cn(C)c(=O)cc2C(F)F)CCN1C (stereo in doubt) [Example 383, 4-(difluoromethyl)-N-[4-fluoro-5-[2-[(2R,6S)-2,6-dimethylmorpholin-4-yl]pyrimidin-5-yl]-2-[(3R)-3,4-dimethylpiperazin-1-yl]phenyl]-1-methyl-6-oxopyridine-3-carboxamide] | 149 | 1.19 | – | – |
| C[C@@H]1CN(c2ncc(-c3cc(NC(=O)c4c[nH]c(=O)cc4C(F)F)c(N4CCN(C)[C@H](C)C4)cc3F)cn2)CCO1 (stereo in doubt) [Example 398, 4-(difluoromethyl)-N-[4-fluoro-2-[(3R)-3,4-dimethylpiperazin-1-yl]-5-[2-[(2R)-2-methylmorpholin-4-yl]pyrimidin-5-yl]phenyl]-6-oxo-1H-pyridine-3-carboxamide] | 44 | – | 0.899 | – |
| CC1CN(c2cc(F)c(-c3cnc(N4CCOCC4)nc3)cc2NC(=O)c2c[nH]c(=O)cc2C(F)F)CCN1C (stereo in doubt) [Example 410, 4-(difluoromethyl)-N-[4-fluoro-5-(2-morpholin-4-ylpyrimidin-5-yl)-2-[(3R)-3,4-dimethylpiperazin-1-yl]phenyl]-6-oxo-1H-pyridine-3-carboxamide] | 63 | – | 0.84 | – |
| CCN(C)C1CCN(c2cc(F)c(-c3cnc(N4C[C@@H](C)O[C@@H](C)C4)nc3)cc2NC(=O)c2c[nH]c(=O)cc2C(F)(F)F)C1 (stereo in doubt) [Example 418, N-[4-fluoro-5-[2-[(2R,6S)-2,6-dimethylmorpholin-4-yl]pyrimidin-5-yl]-2-[(3S)-3-[ethyl(methyl)amino]pyrrolidin-1-yl]phenyl]-6-oxo-4-(trifluoromethyl)-1H-pyridine-3-carboxamide] | 70 | – | 1.05 | – |
| C[C@@H]1CN(c2ncc(-c3cc(NC(=O)c4ccc(F)cc4C(F)(F)F)c(N4CCN(C)[C@H](C)C4)cc3F)cn2)CCO1 (stereo in doubt) [Example 452, 4-fluoro-N-[4-fluoro-2-[(3R)-3,4-dimethylpiperazin-1-yl]-5-[2-[(2R)-2-methylmorpholin-4-yl]pyrimidin-5-yl]phenyl]-2-(trifluoromethyl)benzamide] | 62 | – | 0.493 | – |
| CC1CN(c2cc(F)c(-c3cnc(N4CCNCC4)nc3)cc2NC(=O)c2cn(C)c(=O)cc2C(F)(F)F)CCN1C (stereo in doubt) [Example 464, N-[4-fluoro-5-(2-piperazin-1-ylpyrimidin-5-yl)-2-[(3R)-3,4-dimethylpiperazin-1-yl]phenyl]-1-methyl-6-oxo-4-(trifluoromethyl)pyridine-3-carboxamide] | 49 | – | 2.21 | – |
| C[C@@H]1CN(c2nccc(-c3cc(NC(=O)c4c[nH]c(=O)cc4C(F)(F)F)c(N4CCN(C)[C@H](C)C4)cc3F)n2)CCO1 (stereo in doubt) [Example 593, N-[4-fluoro-2-[(3R)-3,4-dimethylpiperazin-1-yl]-5-[2-[(2R)-2-methylmorpholin-4-yl]pyrimidin-4-yl]phenyl]-6-oxo-4-(trifluoromethyl)-1H-pyridine-3-carboxamide] | 14 | – | 0.737 | – |
| CC1CN(c2nccc(-c3cc(NC(=O)c4c[nH]c(=O)cc4C(F)(F)F)c(N4C[C@@H](C)N(C)[C@@H](C)C4)cc3F)n2)CCO1 (stereo in doubt) [Example 594, N-[4-fluoro-5-[2-[(2R)-2-methylmorpholin-4-yl]pyrimidin-4-yl]-2-[(3S,5R)-3,4,5-trimethylpiperazin-1-yl]phenyl]-6-oxo-4-(trifluoromethyl)-1H-pyridine-3-carboxamide] | 19 | – | 0.712 | – |
| CC1CN(c2cc(F)c(-c3csc(N4CCOCC4)n3)cc2NC(=O)c2c[nH]c(=O)cc2C(F)(F)F)CCN1C (stereo in doubt) [Example 617, N-[4-fluoro-5-(2-morpholin-4-yl-1,3-thiazol-4-yl)-2-[(3R)-3,4-dimethylpiperazin-1-yl]phenyl]-6-oxo-4-(trifluoromethyl)-1H-pyridine-3-carboxamide] | 36 | – | 558000 | – |
| C[C@@H]1CN(c2cc(F)c(-c3cnc(N4CCOCC4)nc3)cc2NC(=O)c2c[nH]nc2C(F)(F)F)C[C@H](C)N1C [Example 42, N-[4-fluoro-5-(2-morpholin-4-ylpyrimidin-5-yl)-2-[(3R,5S)-3,4,5-trimethylpiperazin-1-yl]phenyl]-3-(trifluoromethyl)-1H-pyrazole-4-carboxamide] | 428 | – | – | 3.45 |
| C[C@@H]1CN(c2cc(F)c(-c3ccc4c(c3)OCO4)cc2NC(=O)c2c[nH]c(=O)cc2C(F)(F)F)C[C@H](C)N1C [Example 63, N-[5-(1,3-benzodioxol-5-yl)-4-fluoro-2-[(3R,5S)-3,4,5-trimethylpiperazin-1-yl]phenyl]-6-oxo-4-(trifluoromethyl)-1H-pyridine-3-carboxamide] | 206 | 0.694 | – | – |
| CC(=O)Nc1ccc(-c2cc(NC(=O)c3c[nH]c(=O)cc3C(F)(F)F)c(N3C[C@@H](C)N(C)[C@@H](C)C3)cc2F)cn1 [Example 64, N-[5-(6-acetamidopyridin-3-yl)-4-fluoro-2-[(3R,5S)-3,4,5-trimethylpiperazin-1-yl]phenyl]-6-oxo-4-(trifluoromethyl)-1H-pyridine-3-carboxamide] | 366 | 0.199 | – | – |
| COCCOc1ccc(-c2cc(NC(=O)c3c[nH]c(=O)cc3C(F)(F)F)c(N3C[C@@H](C)N(C)[C@@H](C)C3)cc2F)cc1 [Example 90, N-[4-fluoro-5-[4-(2-methoxyethoxy)phenyl]-2-[(3R,5S)-3,4,5-trimethylpiperazin-1-yl]phenyl]-6-oxo-4-(trifluoromethyl)-1H-pyridine-3-carboxamide] | 120 | 0.441 | – | – |
